The source of these data is patent US11613525B2 (CTXT PTY LIMITED, priority 2018, dated 2023).

For experiment [1], the target named is human STING (HAQ) (Homo sapiens, UniProt Q86WV6, G230A/H232R/R293Q). Description: biochemical. The following applies: for ΔTm at 100 µM: read-out: DSF huSTING (HAQ) ΔTm (° C.). The class given is binding. The procedure:
(§1) DSF monitors thermal unfolding of protein in the presence of a fluorescent dye and is typically performed using a real-time PCR instrument. The temperature at which a protein unfolds is measured by an increase in the fluorescence of a dye with affinity for hydrophobic parts of the protein that are gradually exposed during unfolding. The fluorescence of the dye is quenched in aqueous environments, but when the dye associates with hydrophobic sites on the unfolded protein, its fluorescence increases. The fluorescence intensity is plotted as a function of the temperature, generating a sigmoidal curve that can be described by a two-state transition. The inflection point of the transition curve (Tm) is calculated using simple equations such as that of Boltzman.
(§2) Sealed plates were then placed into a Bio-Rad CFX96/C1000 thermocycler and FRET scanning mode (λ^excitation of 490 nm and reads at λ^emission of 570 nm) was used to measure fluorescence intensity. […] The melting point (Tm) obtained for STING protein alone was subtracted from Tm obtained for protein incubated with ligand to generate ΔTm values listed in the table below.
(§3) These additional compounds were tested as described above, however the protein concentration was 2 μM.

Experiment [2] addresses huSTING (HAQ) (Homo sapiens (Human), UniProt Q86WV6, G230A/H232R/R293Q/R71H). Description: THP-1 reporter cell line assay, THP-1 STING Lucia ISG cells. The format is cell-based. The settings on record: THP-1 STING Lucia ISG cells, read-out: Cellular EC50 huSTING (HAQ).
Experiment [3] deals with T1, huSTING (WT) (Homo sapiens (Human), UniProt Q86WV6, H232R). In words: THP-1 reporter cell line assay, THP-1-Dual KI-hSTING-R232 cells. The following applies: read-out: Cellular EC50 huSTING (WT). The format is cell-based.
Target sequence in this assay (Q86WV6 whole entry H232R): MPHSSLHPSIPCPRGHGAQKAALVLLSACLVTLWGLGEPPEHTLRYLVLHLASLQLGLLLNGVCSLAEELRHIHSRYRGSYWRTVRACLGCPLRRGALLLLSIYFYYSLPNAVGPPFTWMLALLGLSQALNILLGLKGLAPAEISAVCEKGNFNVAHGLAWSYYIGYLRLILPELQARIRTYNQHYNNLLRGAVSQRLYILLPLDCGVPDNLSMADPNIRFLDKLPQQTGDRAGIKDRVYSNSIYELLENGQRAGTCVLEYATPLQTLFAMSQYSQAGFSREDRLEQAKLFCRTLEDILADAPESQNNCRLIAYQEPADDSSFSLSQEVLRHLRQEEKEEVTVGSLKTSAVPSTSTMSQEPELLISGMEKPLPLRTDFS
Experiment [4] concerns the target T1, huSTING (WT). Description: Differential scanning fluorimetry (DSF), huSTING (WT). The format is binding. The following applies: compound 100 μM; protein concentration 2 μM. How it is done: as §1, §2, §3
Target sequence in this assay (Q86WV6 other isoform, or with tags, fused parts or gaps, stated change not applied): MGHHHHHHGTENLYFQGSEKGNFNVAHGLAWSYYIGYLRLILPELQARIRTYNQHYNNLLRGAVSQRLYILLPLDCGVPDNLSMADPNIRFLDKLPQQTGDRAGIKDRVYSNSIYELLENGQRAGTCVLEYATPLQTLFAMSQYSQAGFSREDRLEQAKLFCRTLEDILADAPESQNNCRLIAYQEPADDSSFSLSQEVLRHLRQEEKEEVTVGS
[5] abbreviates: modified method, top concentration 40 μM, pin tool, EnVision.

Where two headings read alike, the source gives them in different places. Some results are limits rather than exact numbers.

Chain of human STING (HAQ) (Q86WV6 whole entry G230A/H232R/R293Q, looked up): as the sequence (Q86WV6 whole entry H232R) above, with G230A, R293Q counted along it
Chain of huSTING (HAQ) (Q86WV6 whole entry R71H/G230A/H232R/R293Q): as the sequence (Q86WV6 whole entry H232R) above, with R71H, G230A, R293Q counted along it

For orientation: ΔTm means the change in melting temperature against a reference sample. By EC50 is commonly meant the midpoint of the concentration-response curve. As to `CCOC(=O)c1sc2cccc(F)c2c1COc1c(F)cc(C(N)=O)cc1F` [Example 2, Ethyl 3-((4-carbamoyl-2,6-difluorophenoxy)methyl)-4-fluorobenzo[b]thiophene-2-carboxylate], the ΔTm at 100 µM in experiment [1] stood at 1.44 °C. For the same molecule, the EC50 in experiment [2] (24 h, top concentration 50 μM) is 2070 nM; in experiment [3], greater than 50000 nM.

With `COC(=O)N(C)CCOC(=O)c1sc2cccc(Cl)c2c1COc1c(F)cc(C(N)=O)cc1F` [Example 161, 2-((Methoxycarbonyl)(methyl)amino)ethyl 3-((4-carbamoyl-2,6-difluorophenoxy)methyl)-4-chlorobenzo[b]thiophene-2-carboxylate], in experiment [4], the “DSF huSTING (WT) ΔTm (° C.)” value is −1.76 °C. The EC50 was determined as 62 nM in experiment [2] (setting [5]) and 669 nM in experiment [3].

On to `CC(C)OC(=O)c1sc2cccc(F)c2c1COc1ccc(C(N)=O)cc1` [Example 4, Isopropyl 3-((4-carbamoylphenoxy)methyl)-4-fluorobenzo[b]thiophene-2-carboxylate], for which the ΔTm at 100 µM in experiment [1] came to 0.13 °C. Moreover, the EC50 was 2580 nM in experiment [2] (24 h, top concentration 50 μM) and greater than 50000 nM in experiment [3].

In the case of `NC(=O)c1ccc(OCc2c(C(=O)O)sc3cccc(Cl)c23)cc1` [Example 8, 3-((4-Carbamoylphenoxy)methyl)-4-chlorobenzo[b]thiophene-2-carboxylic acid], in experiment [1] (1 μM protein, compound at 100 μM), the “DSF huSTING (HAQ) ΔTm (° C.)” value was 13.96 °C.

For `CCOC(=O)c1sc2cccc(Cl)c2c1COc1ccc(C(N)=O)cc1` [Example 7, Ethyl 3-((4-carbamoylphenoxy)methyl)-4-chlorobenzo[b]thiophene-2-carboxylate], in experiment [1], the ΔTm at 100 µM turned out to be 0.26 °C. Besides, the EC50 in experiment [2] (24 h, top concentration 50 μM) turned out to be 705 nM; in experiment [3] it was 8940 nM.

For `CCOC(=O)c1sc2cccc(Cl)c2c1COc1c(F)cc(C(N)=O)cc1CO` [Example 110, Ethyl 3-((4-carbamoyl-2-fluoro-6-(hydroxymethyl)phenoxy)methyl)-4-chlorobenzo[b]thiophene-2-carboxylate], the EC50 in experiment [2] (setting [5]) worked out at 13 nM; in experiment [3], 52 nM.

For the molecule `CCOC(=O)c1sc2ccnc(OC)c2c1COc1c(F)cc(C(N)=O)cc1CO` [Example 121, Ethyl 3-((4-carbamoyl-2-fluoro-6-(hydroxymethyl)phenoxy)methyl)-4-methoxythieno[3,2-c]pyridine-2-carboxylate], the results for the EC50 in experiment [2] (setting [5]) and in experiment [3] were 59 nM and 580 nM, respectively.

For `COc1cccc2sc(C(=O)OCCN3CCOCC3)c(COc3ccc(C(N)=O)cc3)c12` [Example 157, 2-Morpholinoethyl 3-((4-carbamoylphenoxy)methyl)-4-methoxybenzo[b]thiophene-2-carboxylate], the EC50 in experiment [2] (setting [5]) is 373 nM; in experiment [3] it was 2030 nM.

As to `CCOC(=O)c1sc2ccc(F)c(Cl)c2c1COc1ccc(C(N)=O)cc1` [Example 83, Ethyl 3-((4-carbamoylphenoxy)methyl)-4-chloro-5-fluorobenzo[b]thiophene-2-carboxylate], the EC50 was 2610 nM in experiment [2] (24 h, top concentration 50 μM) and greater than 50000 nM in experiment [3].

Turning to `CCOC(=O)c1sc2cccc(F)c2c1COc1ccc(C(N)=O)c(C)c1` [Example 53, Ethyl 3-((4-carbamoyl-3-methylphenoxy)methyl)-4-fluorobenzo[b]thiophene-2-carboxylate], the EC50 was greater than 50000 nM in experiment [2] (24 h, top concentration 50 μM) and greater than 50000 nM in experiment [3].

On to `CCOC(=O)c1sc2cncc(Cl)c2c1COc1c(F)cc(C(N)=O)cc1F` [Example 170, Ethyl 3-((4-carbamoyl-2,6-difluorophenoxy)methyl)-4-chlorothieno[2,3-c]pyridine-2-carboxylate], for which the EC50 in experiment [2] (setting [5]) was 189 nM; in experiment [3], 450 nM.

Consider `CC(C)(C)C(=O)OCOC(=O)c1sc2cccc(Br)c2c1COc1c(F)cc(C(N)=O)cc1F` [Example 128, (Pivaloyloxy)methyl 4-bromo-3-((4-carbamoyl-2,6-difluorophenoxy)methyl)benzo[b]thiophene-2-carboxylate], for which the EC50 in experiment [2] (setting [5]) turned out to be 68 nM; in experiment [3] it was 210 nM.

`CC(C)[C@H](NC(=O)OC(C)(C)C)C(=O)OCOC(=O)c1sc2cccc(Cl)c2c1COc1c(F)cc(C(N)=O)cc1F` [Example 133, (((tert-Butoxycarbonyl)-L-valyl)oxy)methyl 3-((4-carbamoyl-2,6-difluorophenoxy)methyl)-4-chlorobenzo[b]thiophene-2-carboxylate]: the results for the EC50 in experiment [2] (setting [5]) and in experiment [3] were 120 nM and 806 nM, respectively.

`CCOC(=O)c1sc2cccc(Cl)c2c1COc1ccc(C(N)=O)c(-c2cn[nH]c2)c1` [Example 151, Ethyl 3-((4-carbamoyl-3-(1H-pyrazol-4-yl)phenoxy)methyl)-4-chlorobenzo[b]thiophene-2-carboxylate]: the half-maximal effective concentration (EC50) worked out at 1820 nM in experiment [2] (setting [5]) and 3460 nM in experiment [3].

Turning to `CCOC(=O)c1sc2c(C)ccc(Cl)c2c1COc1c(F)cc(C(N)=O)cc1F` [Example 144, Ethyl 3-((4-carbamoyl-2,6-difluorophenoxy)methyl)-4-chloro-7-methylbenzo[b]thiophene-2-carboxylate], the EC50 in experiment [2] (setting [5]) came out at 23 nM; in experiment [3], 925 nM.

`CCOC(=O)c1sc2c(F)ccc(Br)c2c1COc1c(F)cc(C(N)=O)cc1F` [Example 116, Ethyl 4-bromo-3-((4-carbamoyl-2,6-difluorophenoxy)methyl)-7-fluorobenzo[b]thiophene-2-carboxylate]: the EC50 stood at 24 nM in experiment [2] (setting [5]) and 76 nM in experiment [3].

As to `CCOC(=O)c1sc2cccc(Cl)c2c1CNc1ccc(C(N)=O)cc1` [Example 75, Ethyl 3-(((4-carbamoylphenyl)amino)methyl)-4-chlorobenzo[b]thiophene-2-carboxylate], the EC50 is 17900 nM in experiment [2] (24 h, top concentration 50 μM) and greater than 50000 nM in experiment [3].

In the case of `CCOC(=O)c1sc2cccc(Cl)c2c1COc1ccc(C(N)=O)cc1Cl` [Example 37, Ethyl 3-((4-carbamoyl-2-chlorophenoxy)methyl)-4-chlorobenzo[b]thiophene-2-carboxylate], the EC50 came to 3840 nM in experiment [2] (24 h, top concentration 50 μM) and 4770 nM in experiment [3].

For the molecule `CC(C)(C)C(=O)OCOC(=O)c1sc2cccc(C3CC3)c2c1COc1c(F)cc(C(N)=O)cc1F` [Example 124, (Pivaloyloxy)methyl 3-((4-carbamoyl-2,6-difluorophenoxy)methyl)-4-cyclopropylbenzo[b]thiophene-2-carboxylate], the EC50 in experiment [2] (setting [5]) stood at 278 nM; in experiment [3] it was 1430 nM.

Regarding `CCOC(=O)c1sc2c(F)ccc(Cl)c2c1COc1c(F)cc(C(N)=O)cc1F` [Example 92, Ethyl 3-((4-carbamoyl-2,6-difluorophenoxy)methyl)-4-chloro-7-fluorobenzo[b]thiophene-2-carboxylate], the EC50 is 50 nM in experiment [2] (setting [5]) and 163 nM in experiment [3].

Turning to `CCOC(=O)c1sc2cccc(Cl)c2c1COc1ccc(C(N)=O)c(COC)c1` [Example 150, Ethyl 3-((4-carbamoyl-3-(methoxymethyl)phenoxy)methyl)-4-chlorobenzo[b]thiophene-2-carboxylate], the EC50 in experiment [2] (setting [5]) is 550 nM; in experiment [3], 489 nM.

As to `CCOC(=O)c1sc2c(CO)ccc(Cl)c2c1COc1c(F)cc(C(N)=O)cc1F` [Example 145, Ethyl 3-((4-carbamoyl-2,6-difluorophenoxy)methyl)-4-chloro-7-(hydroxymethyl)benzo[b]thiophene-2-carboxylate], the EC50 in experiment [2] (setting [5]) amounted to 746 nM; in experiment [3] it was 3840 nM.

With `CCOC(=O)c1sc2ccc(F)c(F)c2c1COc1ccc(C(N)=O)cc1` [Example 15, Ethyl 3-((4-carbamoylphenoxy)methyl)-4,5-difluorobenzo[b]thiophene-2-carboxylate], the EC50 in experiment [2] (24 h, top concentration 50 μM) is 2400 nM; in experiment [3] it was 2570 nM.

Turning to `CCOC(=O)c1sc2ncnc(OC)c2c1COc1c(F)cc(C(N)=O)cc1F` [Example 108], the figures for the EC50 in experiment [2] (setting [5]) and in experiment [3] were 344 nM and 341 nM, respectively.

For the molecule `CCOC(=O)c1sc2cccnc2c1COc1ccc(C(N)=O)cc1` [Example 23, Ethyl 3-((4-carbamoylphenoxy)methyl)thieno[3,2-b]pyridine-2-carboxylate], the EC50 in experiment [2] (24 h, top concentration 50 μM) amounted to 7610 nM; in experiment [3] it was 16900 nM.

`CCOC(=O)c1sc2cccc(C(F)(F)F)c2c1COc1ccc(C(N)=O)cc1` [Example 35, Ethyl 3-((4-carbamoylphenoxy)methyl)-4-(trifluoromethyl)benzo[b]thiophene-2-carboxylate]: the EC50 in experiment [2] (24 h, top concentration 50 μM) was found to be 655 nM; in experiment [3], 1280 nM.

Take `CCOC(=O)c1sc2c(F)ccc(F)c2c1COc1c(F)cc(C(N)=O)cc1F` [Example 79, Ethyl 3-((4-carbamoyl-2,6-difluorophenoxy)methyl)-4,7-difluorobenzo[b]thiophene-2-carboxylate]: the EC50 in experiment [2] (24 h, top concentration 50 μM) was 170 nM; in experiment [3] it was 474 nM.
